Results reported in paper PMC4821163 (Organic letters, 2016).

Tests used:
HeLa = format: cell-based; details: for Selectivity index (SI) over MCF-10A cells: IC50 MCF-10A divided by IC50 HeLa
MCF7 = format: cell-based; details: IC50 MCF-10A divided by IC50 MCF7
NIH/3T3 = format: cell-based; details: read-out: Cell cytotoxicity IC50; NIH/3T3 nontumor cell line
Jurkat = format: cell-based; details: for Selectivity index (SI) over MCF-10A cells: IC50 MCF-10A divided by IC50 Jurkat
cancer cell lines = details: several cancer cell lines; cited from earlier work
U937 = format: cell-based; details: for Selectivity index (SI) over MCF-10A cells: IC50 MCF-10A divided by IC50 U937
MCF-10A = format: cell-based; details: for Selectivity index (SI), overall statement: tested cancer cell lines, MCF-10A as reference nontumor cell line
MDA-MB-231 = format: cell-based; details: IC50 MCF-10A divided by IC50 MDA-MB-231

Structure (SMILES)	Selectivity index (SI) over MCF-10A cells (HeLa)	IC50 (HeLa; read-out: Cell cytotoxicity IC50, HeLa cells) [nM]	Selectivity index (SI) over MCF-10A cells (MCF7)	IC50 (NIH/3T3) [nM]	Selectivity index (SI) over MCF-10A cells (Jurkat)	IC50 (Jurkat; read-out: Cell cytotoxicity IC50, Jurkat cells) [nM]	IC50 values against cancer cell growth, in words (cancer cell lines)	Selectivity index (SI) over MCF-10A cells (U937)	IC50 (U937; read-out: Cell cytotoxicity IC50, U937 cells) [nM]	IC50 (MCF-10A; read-out: Cell cytotoxicity IC50, MCF-10A nontumor cell line) [nM]	Selectivity index (SI), overall statement (MCF-10A)	Selectivity index (SI) over MCF-10A cells (MDA-MB-231)
C/C=C(\C)C(=O)O[C@@H]1[C@@H](O)[C@@H]2O[C@H]3[C@H](O[C@@H](CCCCC)CCCCCCC(=O)CCC(=O)OC[C@@H](O2)[C@H]1OC(=O)/C=C/c1ccccc1)O[C@H](C)[C@H](OC(C)=O)[C@@H]3O [ipomoeassin F]	0.33	16.4	0.12	16.8	0.89	6.1	single-digit nanomolar range	1	5.4	5.4	< 1	0.83
CC(=O)O[C@H]1C(=O)[C@@]2(C)[C@H]([C@H](OC(=O)c3ccccc3)[C@]3(O)C[C@H](OC(=O)[C@H](O)[C@@H](NC(=O)c4ccccc4)c4ccccc4)C(C)=C1C3(C)C)[C@]1(OC(C)=O)CO[C@@H]1C[C@@H]2O [paclitaxel]	25.6		3.73		14.6			15.2			good selectivity in general	8.04
